Measured values reported in ChEMBL document CHEMBL1201862, “PubChem BioAssay data set” (2004).
Active and inactive are the calls of the source.

Columns and labels:
[1] = NIH-3T3 fibroblast cytotoxicity, dose response, cytotoxicity control, cell-based, fluorescence, Alamar Blue, secondary assay (AID 2327); type: functional;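 further: NIH-3T3 mouse fibroblasts cultured with fluconazole at 8 µg/mL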
[2] = system: Streptococcus sp. 'group A'; assay: Streptococcus pyogenes SK(-)GAS viability under kanamycin – luminescence, BacTiterGlo, confirmation, counter-screen for streptokinase expression inhibitor project, dose response (AID 1900); type: functional, organism-based
[3] = fluconazole-exposed Candida albicans growth modulators – fluorescence, retest, confirmation (AID 2467); type: functional, cell-based
[4] = biological target: T1, Serine/threonine-protein phosphatase (Candida dubliniensis (strain CD36 / CBS 7987 / NCPF 3949 / NRRLY-17841) (Yeast), UniProt B9W6M3); assay: blockers of CaCl2-induced CDRE-lacZ signaling – S. cerevisiae, luminescence, secondary, dose response (AID 2388); type: functional, cell-based;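 further: yeast reporter cells carrying a calcineurin-responsive lacZ construct stimulated with calcium chloride; luminescent beta-galactosidase reporter signal in whole cells rather than isolated phosphatase activity; potency for inhibition where a drop in reporter signal means calcineurin blockade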
T1 sequence (B9W6M3 whole entry): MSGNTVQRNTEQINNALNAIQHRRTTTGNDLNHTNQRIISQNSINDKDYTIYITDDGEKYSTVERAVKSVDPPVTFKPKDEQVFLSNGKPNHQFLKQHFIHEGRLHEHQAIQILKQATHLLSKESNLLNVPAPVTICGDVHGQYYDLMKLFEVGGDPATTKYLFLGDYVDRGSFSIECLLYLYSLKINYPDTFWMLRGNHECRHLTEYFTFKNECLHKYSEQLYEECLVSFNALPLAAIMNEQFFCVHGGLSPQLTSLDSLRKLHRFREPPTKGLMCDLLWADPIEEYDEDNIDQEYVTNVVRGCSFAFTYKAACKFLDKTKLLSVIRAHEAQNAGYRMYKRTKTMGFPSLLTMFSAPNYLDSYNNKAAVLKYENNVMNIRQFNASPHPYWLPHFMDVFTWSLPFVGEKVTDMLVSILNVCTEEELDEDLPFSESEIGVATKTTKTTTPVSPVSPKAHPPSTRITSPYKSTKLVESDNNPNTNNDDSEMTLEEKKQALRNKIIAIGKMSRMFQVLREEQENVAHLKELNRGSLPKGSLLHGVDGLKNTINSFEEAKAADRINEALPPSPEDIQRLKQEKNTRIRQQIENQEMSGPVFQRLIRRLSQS

Streptococcus = assay: GAS UMAA2166 growth inhibition – luminescence, BacTiterGlo, counter-screen for streptokinase expression inhibitor project, dose response (AID 1915); type: functional, organism-based;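 further: potency for reduction of bacterial viability or growth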
Exodeoxyribonuclease V = Exodeoxyribonuclease V (Escherichia coli (strain K12), UniProt P04993+P07648+P08394); assay: RecBCD inhibition via phage-restricted bacterial growth – absorbance, V66 E. coli, mutant T4 phage, counter-screen for AddAB inhibitor project, dose response (AID 492957); type: functional, cell-based, Escherichia coli str. K-12 substr. MG1655
[5] = Counterscreen for AddAB inhibitors: absorbance-based bacterial cell-based high throughput dose response assay for inhibitors of bacterial viability. [Related pubchem assays (depositor defined):AID435030, AID449728, AID449731, AID488942, AID488955, AID488956]; type: functional
[6] = biological target: T2, High affinity choline transporter 1 (Homo sapiens, UniProt Q9GZV3); assay: human choline transporter blockers, potency – cell-based, 5-point CRC, membrane potential dye, dose response (AID 504840); type: functional
T2 sequence (Q9GZV3 whole entry): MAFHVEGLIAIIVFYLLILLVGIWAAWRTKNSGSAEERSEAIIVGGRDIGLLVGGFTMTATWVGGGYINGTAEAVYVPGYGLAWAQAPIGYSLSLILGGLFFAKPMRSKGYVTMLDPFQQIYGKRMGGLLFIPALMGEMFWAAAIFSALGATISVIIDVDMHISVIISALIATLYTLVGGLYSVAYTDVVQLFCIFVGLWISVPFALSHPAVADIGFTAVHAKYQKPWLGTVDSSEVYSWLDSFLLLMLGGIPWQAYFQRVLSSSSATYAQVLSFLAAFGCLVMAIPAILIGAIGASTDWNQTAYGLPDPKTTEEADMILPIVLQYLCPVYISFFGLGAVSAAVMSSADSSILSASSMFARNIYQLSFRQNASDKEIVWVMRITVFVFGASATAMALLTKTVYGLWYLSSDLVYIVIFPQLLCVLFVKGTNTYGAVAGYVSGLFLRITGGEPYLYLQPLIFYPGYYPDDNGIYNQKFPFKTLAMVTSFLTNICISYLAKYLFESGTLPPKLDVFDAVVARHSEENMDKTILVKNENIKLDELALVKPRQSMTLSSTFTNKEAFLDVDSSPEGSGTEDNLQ

[7] = biological target: ATP-dependent molecular chaperone HSP82 (Candida albicans (strain WO-1) (Yeast), UniProt C4YTQ8); assay: steroid-induced GRE reporter decrease in yeast – S. cerevisiae, luminescence, Hsp90 inhibitor project, dose response (AID 2400); type: functional, cell-based;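 further: beta-galactosidase luminescence from glucocorticoid response element reporter as proxy for Hsp90 function; inhibitor potency where signal loss means Hsp90 inhibition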
[8] = mammalian cell viability loss – Alamar Blue, dry powder, cytotoxicity control for antifungal single agent project, dose response (AID 602188); type: functional, cell-based
[9] = biological target: Glyceraldehyde-3-phosphate dehydrogenase (Homo sapiens, UniProt P04406)
Bcl-2-related protein A1 [10] = biological target: T3, Bcl-2-related protein A1 (Mus musculus, UniProt Q07440); assay: small-molecule antagonists of Bfl-1/BH3 interaction – biochemical, TR-FRET, mouse Bfl-1, confirmation (AID 621);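 further: TR-FRET binding of GST-Bfl-1 to FITC-labelled Bid peptide via terbium antibody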
T3 sequence (Q07440 whole entry): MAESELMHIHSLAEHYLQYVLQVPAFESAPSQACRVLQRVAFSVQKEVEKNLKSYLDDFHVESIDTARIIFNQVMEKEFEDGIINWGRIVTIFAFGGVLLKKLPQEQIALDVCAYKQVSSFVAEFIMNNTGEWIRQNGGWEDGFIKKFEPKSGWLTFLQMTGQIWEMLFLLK

Bcl-2-related protein A1 [11] = biological target: T3, Bcl-2-related protein A1; assay: Bfl-1 binding inhibitors, SAR follow-up, biochemical, fluorescence polarization (AID 1070)
[12] = biological target: T4, Nucleotide-binding oligomerization domain-containing protein 1 (Homo sapiens, UniProt Q9Y239); assay: SAR analysis of compounds that inhibit NOD1 - Set 3. [Related pubchem assays (depositor defined):AID1566, AID1575, AID1578, AID1849, AID1852, AID2333, AID2335, AID2466]; type: functional
T4 sequence (Q9Y239 whole entry): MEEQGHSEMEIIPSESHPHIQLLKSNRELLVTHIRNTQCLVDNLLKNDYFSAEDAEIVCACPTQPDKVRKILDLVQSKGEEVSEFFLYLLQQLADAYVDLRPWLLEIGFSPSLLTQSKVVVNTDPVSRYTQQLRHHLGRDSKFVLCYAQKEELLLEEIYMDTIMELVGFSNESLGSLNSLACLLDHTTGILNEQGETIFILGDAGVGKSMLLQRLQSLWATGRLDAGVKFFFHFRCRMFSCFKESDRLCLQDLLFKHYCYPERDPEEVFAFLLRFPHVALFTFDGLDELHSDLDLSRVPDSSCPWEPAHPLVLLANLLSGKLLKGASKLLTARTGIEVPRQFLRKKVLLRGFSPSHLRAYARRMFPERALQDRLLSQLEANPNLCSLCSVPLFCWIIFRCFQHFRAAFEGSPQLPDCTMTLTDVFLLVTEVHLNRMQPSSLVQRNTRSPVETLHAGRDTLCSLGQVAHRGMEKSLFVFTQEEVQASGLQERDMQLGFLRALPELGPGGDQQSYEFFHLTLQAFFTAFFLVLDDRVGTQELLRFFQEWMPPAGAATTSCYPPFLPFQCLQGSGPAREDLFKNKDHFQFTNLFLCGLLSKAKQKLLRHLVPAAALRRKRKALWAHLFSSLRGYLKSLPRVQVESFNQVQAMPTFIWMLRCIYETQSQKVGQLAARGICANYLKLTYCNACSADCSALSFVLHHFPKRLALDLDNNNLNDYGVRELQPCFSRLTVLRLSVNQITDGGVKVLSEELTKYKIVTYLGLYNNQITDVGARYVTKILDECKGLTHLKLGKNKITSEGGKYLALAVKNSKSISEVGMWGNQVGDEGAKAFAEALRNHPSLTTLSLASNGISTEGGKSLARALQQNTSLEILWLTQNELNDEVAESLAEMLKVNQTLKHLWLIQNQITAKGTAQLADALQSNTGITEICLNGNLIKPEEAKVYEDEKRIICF

Tumor necrosis factor = Tumor necrosis factor (Homo sapiens, UniProt P01375); assay: analog potency on TNFa NF-kB signaling – cell-based, set 3, SAR follow-up (AID 2801); type: functional
HEK293 = assay: SAR analysis of compounds that are cytotoxic to HEK293 - Set 3. [Related pubchem assays (depositor defined):AID1575, AID1578, AID1848, AID1849, AID2001, AID2333, AID2334, AID2335, AID2337, AID2469]; type: functional, cell-based; settings: Homo sapiens
[13] = biological target: Nucleotide-binding oligomerization domain-containing protein 2 (Homo sapiens, UniProt Q9HC29); assay: inhibition of MDP-driven NOD2 NF-kB reporter – cell-based, set 3, SAR follow-up (AID 2799); type: functional
Sequence of Nucleotide-binding oligomerization domain-containing protein 2 (Q9HC29 whole entry, the tested form may be a part): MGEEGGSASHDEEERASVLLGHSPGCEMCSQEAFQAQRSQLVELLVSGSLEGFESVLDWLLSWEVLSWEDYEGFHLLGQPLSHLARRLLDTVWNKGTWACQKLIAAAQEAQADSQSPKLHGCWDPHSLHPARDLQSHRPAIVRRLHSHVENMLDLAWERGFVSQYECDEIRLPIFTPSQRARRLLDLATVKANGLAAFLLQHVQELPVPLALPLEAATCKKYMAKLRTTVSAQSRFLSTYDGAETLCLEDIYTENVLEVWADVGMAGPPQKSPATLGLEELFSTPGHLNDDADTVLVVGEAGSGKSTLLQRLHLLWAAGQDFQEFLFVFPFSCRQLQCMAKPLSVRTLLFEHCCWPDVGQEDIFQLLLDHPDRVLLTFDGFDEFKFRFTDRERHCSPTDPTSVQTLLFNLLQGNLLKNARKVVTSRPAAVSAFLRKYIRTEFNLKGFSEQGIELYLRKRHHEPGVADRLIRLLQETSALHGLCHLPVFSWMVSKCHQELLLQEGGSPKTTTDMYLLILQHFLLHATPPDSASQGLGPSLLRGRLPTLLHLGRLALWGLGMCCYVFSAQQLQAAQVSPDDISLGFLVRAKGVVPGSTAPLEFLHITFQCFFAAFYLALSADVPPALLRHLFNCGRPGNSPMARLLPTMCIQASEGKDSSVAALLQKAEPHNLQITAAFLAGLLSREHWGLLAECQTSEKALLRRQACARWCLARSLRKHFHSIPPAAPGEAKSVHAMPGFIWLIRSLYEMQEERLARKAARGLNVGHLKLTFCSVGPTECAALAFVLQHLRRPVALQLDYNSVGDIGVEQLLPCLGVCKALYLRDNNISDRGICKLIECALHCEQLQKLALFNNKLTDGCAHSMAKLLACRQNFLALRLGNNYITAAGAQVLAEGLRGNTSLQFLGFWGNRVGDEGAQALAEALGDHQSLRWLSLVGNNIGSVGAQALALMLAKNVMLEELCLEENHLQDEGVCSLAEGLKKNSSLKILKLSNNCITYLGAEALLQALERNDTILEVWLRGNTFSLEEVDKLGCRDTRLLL

Sequence of Exodeoxyribonuclease V (P04993 whole entry): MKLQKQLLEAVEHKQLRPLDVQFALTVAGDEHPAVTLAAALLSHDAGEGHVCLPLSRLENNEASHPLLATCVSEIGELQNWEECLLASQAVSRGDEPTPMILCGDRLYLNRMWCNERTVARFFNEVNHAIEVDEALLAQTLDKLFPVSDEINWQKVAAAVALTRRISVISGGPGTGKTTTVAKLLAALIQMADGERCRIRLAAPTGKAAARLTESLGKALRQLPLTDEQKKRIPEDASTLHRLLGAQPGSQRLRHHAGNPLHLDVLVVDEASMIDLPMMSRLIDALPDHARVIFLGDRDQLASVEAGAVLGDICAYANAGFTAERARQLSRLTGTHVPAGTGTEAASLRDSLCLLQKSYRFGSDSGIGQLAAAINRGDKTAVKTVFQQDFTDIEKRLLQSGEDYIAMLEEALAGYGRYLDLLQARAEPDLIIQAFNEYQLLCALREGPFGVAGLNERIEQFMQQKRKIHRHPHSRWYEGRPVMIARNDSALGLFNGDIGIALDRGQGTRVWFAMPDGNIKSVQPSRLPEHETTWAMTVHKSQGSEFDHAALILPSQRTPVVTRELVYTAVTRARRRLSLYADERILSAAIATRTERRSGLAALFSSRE
Sequence of Exodeoxyribonuclease V (P07648 whole entry): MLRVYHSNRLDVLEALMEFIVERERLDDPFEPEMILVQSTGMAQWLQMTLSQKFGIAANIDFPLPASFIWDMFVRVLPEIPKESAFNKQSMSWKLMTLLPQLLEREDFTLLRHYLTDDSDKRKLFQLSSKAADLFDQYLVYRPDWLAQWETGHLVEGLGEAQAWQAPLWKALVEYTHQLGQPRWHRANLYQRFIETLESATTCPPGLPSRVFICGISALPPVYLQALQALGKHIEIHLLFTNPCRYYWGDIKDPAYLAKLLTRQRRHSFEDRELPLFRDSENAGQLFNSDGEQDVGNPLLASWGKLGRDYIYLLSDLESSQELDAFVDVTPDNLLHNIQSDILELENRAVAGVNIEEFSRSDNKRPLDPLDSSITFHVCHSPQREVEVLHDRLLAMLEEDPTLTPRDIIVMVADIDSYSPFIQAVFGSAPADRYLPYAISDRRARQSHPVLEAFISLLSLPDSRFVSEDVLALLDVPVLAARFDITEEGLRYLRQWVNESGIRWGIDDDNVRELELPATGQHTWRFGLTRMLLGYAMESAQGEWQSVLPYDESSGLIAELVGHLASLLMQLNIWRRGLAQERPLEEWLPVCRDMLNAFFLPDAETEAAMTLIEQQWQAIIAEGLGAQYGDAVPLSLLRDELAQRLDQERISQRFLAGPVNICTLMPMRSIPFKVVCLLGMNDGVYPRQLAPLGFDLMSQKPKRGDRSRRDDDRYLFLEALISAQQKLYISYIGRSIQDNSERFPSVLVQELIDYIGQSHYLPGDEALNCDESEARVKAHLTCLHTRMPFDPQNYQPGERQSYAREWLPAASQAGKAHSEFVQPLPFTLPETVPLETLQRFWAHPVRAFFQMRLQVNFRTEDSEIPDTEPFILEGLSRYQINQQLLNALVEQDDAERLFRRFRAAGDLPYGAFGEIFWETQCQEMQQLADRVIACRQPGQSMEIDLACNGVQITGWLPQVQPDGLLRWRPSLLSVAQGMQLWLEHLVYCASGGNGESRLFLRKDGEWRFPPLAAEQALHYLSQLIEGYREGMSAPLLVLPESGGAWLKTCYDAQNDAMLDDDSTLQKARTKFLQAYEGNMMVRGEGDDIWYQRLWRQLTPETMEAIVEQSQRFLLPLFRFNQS
Sequence of Exodeoxyribonuclease V (P08394 whole entry): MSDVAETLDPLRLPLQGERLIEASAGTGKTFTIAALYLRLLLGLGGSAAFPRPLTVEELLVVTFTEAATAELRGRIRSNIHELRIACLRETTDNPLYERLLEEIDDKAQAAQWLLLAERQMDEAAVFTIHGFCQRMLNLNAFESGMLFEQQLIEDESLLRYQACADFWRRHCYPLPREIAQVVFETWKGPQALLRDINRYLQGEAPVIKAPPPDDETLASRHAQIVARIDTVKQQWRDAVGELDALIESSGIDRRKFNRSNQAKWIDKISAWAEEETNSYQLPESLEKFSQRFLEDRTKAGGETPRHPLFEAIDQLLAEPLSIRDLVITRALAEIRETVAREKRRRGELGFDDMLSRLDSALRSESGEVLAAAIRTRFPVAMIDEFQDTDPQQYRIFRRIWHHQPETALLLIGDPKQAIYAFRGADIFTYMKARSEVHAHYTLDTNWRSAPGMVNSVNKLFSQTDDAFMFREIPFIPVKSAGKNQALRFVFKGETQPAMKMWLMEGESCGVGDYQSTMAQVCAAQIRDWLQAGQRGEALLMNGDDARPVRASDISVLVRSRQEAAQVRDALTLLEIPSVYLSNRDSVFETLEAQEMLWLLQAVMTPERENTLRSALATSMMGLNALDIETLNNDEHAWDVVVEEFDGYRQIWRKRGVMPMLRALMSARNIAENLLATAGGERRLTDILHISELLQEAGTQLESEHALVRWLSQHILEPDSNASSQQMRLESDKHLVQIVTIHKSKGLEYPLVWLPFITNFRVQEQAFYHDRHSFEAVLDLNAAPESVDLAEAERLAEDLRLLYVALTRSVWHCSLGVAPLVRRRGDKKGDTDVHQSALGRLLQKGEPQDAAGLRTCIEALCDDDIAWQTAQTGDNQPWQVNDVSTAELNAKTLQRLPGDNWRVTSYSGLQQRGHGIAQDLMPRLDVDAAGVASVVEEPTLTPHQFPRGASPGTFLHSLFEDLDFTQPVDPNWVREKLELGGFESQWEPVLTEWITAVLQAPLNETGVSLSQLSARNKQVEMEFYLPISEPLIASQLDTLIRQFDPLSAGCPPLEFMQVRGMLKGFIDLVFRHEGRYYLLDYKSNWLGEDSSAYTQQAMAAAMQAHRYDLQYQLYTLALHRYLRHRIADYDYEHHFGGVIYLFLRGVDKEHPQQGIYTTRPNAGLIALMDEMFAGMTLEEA
Sequence of Glyceraldehyde-3-phosphate dehydrogenase (P04406 whole entry): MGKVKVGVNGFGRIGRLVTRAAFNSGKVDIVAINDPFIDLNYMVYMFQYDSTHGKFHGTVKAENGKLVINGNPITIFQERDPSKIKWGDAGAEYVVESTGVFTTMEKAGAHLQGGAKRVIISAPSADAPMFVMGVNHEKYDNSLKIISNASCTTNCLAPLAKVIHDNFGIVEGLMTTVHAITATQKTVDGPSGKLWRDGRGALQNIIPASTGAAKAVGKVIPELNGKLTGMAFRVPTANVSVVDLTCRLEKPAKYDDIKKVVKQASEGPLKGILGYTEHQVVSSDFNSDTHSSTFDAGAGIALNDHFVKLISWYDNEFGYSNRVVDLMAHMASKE
Sequence of ATP-dependent molecular chaperone HSP82 (C4YTQ8 whole entry): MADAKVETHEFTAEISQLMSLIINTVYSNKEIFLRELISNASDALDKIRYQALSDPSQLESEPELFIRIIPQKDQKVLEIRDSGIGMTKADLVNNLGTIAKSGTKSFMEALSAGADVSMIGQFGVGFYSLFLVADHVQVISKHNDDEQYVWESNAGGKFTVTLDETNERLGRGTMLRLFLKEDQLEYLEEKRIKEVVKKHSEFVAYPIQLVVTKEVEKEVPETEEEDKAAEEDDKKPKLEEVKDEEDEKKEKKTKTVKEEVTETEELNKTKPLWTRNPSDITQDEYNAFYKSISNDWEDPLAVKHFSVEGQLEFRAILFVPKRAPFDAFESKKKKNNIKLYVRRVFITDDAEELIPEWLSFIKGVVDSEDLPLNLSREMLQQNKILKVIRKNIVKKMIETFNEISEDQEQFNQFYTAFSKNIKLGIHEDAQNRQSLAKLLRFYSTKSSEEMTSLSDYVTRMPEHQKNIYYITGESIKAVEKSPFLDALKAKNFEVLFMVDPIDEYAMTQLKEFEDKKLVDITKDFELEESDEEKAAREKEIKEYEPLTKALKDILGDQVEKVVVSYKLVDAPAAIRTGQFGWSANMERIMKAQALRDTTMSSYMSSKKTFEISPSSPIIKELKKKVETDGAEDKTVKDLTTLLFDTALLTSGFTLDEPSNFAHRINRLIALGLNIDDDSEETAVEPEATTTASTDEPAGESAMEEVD

| SMILES | EC50 [1] | EC50 [2] | EC50 [3] | EC50 [4] | EC50 (Streptococcus) | IC50 (Exodeoxyribonuclease V) | IC50 [5] | IC50 [6] | EC50 [7] | AC50 [8] | IC50 [9] | IC50 (Bcl-2-related protein A1 [10]) | IC50 (Bcl-2-related protein A1 [11]) | IC50 [12] | IC50 (Tumor necrosis factor) | IC50 (HEK293) | IC50 [13] |
| --- | --- | --- | --- | --- | --- | --- | --- | --- | --- | --- | --- | --- | --- | --- | --- | --- | --- |
| Cc1ccc(-c2nc3c(Cl)cc(Cl)cc3c(=O)n2O)cc1 | 31 µM (inconclusive) | 2.19 µM (active) | 0.891 µM (active) | > 180 µM (inactive) | 2.15 µM (active) | > 119 µM (inactive) | > 119 µM (inactive) | 15.1 µM (active) | 3.24 µM (active) | 16.2 µM (active) |  |  |  |  |  |  |  |
| Nc1cc(-c2ccccc2)nn1S(=O)(=O)c1c(F)c(F)c(F)c(F)c1F |  |  |  |  |  |  |  |  |  |  | > 100 µM (not active) | 5.83 µM (active) | > 100 µM (not active) | > 20 µM (inactive) | > 20 µM (inactive) | > 20 µM (inactive) | > 20 µM (inactive) |
